Measured values: PMC11167338, “Exploring the impact of trifluoromethyl (–CF3) functional group on the anti-cancer activity of isoxazole-based molecules: design, synthesis, biological evaluation and molecular docking analysis” (RSC Advances, 2024)

Legend:
4T1 = experiment: MTT anti-proliferative assay on 4T1; assay type: cell-based, mouse; settings: Mus musculus, 4T1; MTT, 48 hours treatment, mean ± SD (n = 2)
Procedure: (§1) All synthesized molecules were tested for their anticancer activity using the MTT assay protocol against the murine mammary carcinoma cell line (4T1), the human breast cancer (MCF-7), and the prostatic small cell carcinoma (PC-3). These compounds were then assessed for their IC50 determination at various concentrations. According to this finding, all synthesized compounds have the ability to inhibit the proliferation of a variety of cancer cell lines. […] It is more biased for MCF-7 cells over other cancer cells tested. Further, we contemplated conducting additional research to assess their anti-cancer effectiveness and mechanism (Fig. 3).
(§2) The mouse triple-negative breast cancer cell line (4T1), a human luminal A breast cancer cell line (MCF-7), a human prostate cancer cell line (PC-3), and a normal human embryonic kidney cell line (HEK-293) were procured from the National Center for Cell Science (NCCS, Pune, India). Dulbecco's Modified Eagle Medium (DMEM) (Himedia Laboratories Pvt Ltd, Mumbai, India) was used to cultivate MCF-7, 4T1, PC-3, and HEK-293 cells. All the mentioned cell lines were cultured in Dulbecco's Modified Eagle Medium (DMEM) supplemented with 10% heat-inactivated fetal bovine serum (Himedia Laboratories Pvt Ltd, Mumbai, India) and 1% antibiotic (Pen strep: A001), Himedia Laboratories Pvt Ltd, Mumbai, India. Cells were grown in a humidified environment with 5% CO2 at 37 °C. The experiment was performed using the yellow dye MTT [3-(4,5-dimethylthiazol-2-yl)-2, 5-diphenyltetrazolium bromide].
(§3) The MTT assay protocol was used to determine the IC50 values of the final compounds against different types of cancer cell lines and their selectivity over normal human cell lines. Dilutions of various concentrations were made from the compounds' DMSO stock solutions in the appropriate media. With a control solution of less than 1% DMSO in the appropriate media, dilutions from 200 μM to 0.781 μM concentrations were prepared using the serial dilution method. Cells were subcultured in their respective complete media according to the ATCC protocol before being seeded on a sterile 96-well plate with around 100 μL per well and a cell density of about 1 × 10^4 cells per well and incubated overnight. The medium was aspirated the following day, and adherent cells were treated with the respective concentrations 200 μM to 0.781 μM. The cells were then cultured for 48 hours in presence of compounds in the growth medium. The medium was aspirated post-treatment, and 100 μL of a 5 mg mL^−1 MTT solution in phenol red-free media was added. This mixture was then incubated for around 3 hours to check for the production of formazan crystals. The MTT solution was withdrawn, and 150 μL of DMSO was added to the wells to dissolve the generated crystals. The absorbance was measured at 570 nm and 650 nm. The percent cell viability was calculated for the IC50 values using GraphPad Prism™ version 8.0.1, and the results were shown as a dose–response curve.

MCF-7 cells [1] = experiment: Cell cycle analysis (PI, flow cytometry); assay type: cell-based, human; settings: MCF-7, 48 hours, at IC50 concentration
Procedure: In addition to the apoptosis assay, the cell cycle progression of MCF-7 cells was also investigated using the compound 2g. The cell population at different cell cycle phases was assessed using flow cytometry. […] These findings highlight that the lead compound 2g specifically impacts cell cycle regulation in the early phase compared to control and standard compound-treated cells (Fig. 6).
Flow cytometry was used to study the cell cycle of compound 2g and BG-45 using the BDAria™ III, a BD biosciences equipment, and the data was processed using Flow Jo software. For this objective, 5.0 × 10^4 MCF-7 cells were seeded onto 12 well plates and incubated overnight. The media was aspirated the other day, and the treatment was continued for another 48 hours after adding the required concentrations of compound 2g and BG-45 to the aspirated media. Following the treatment, the sample wells were rinsed with ice-cold PBS, trypsinized, and collected as a cell pellet. After two ice-cold PBS washes, the pellet was fixed with a dropwise addition of 70% ice-cold ethanol, which was then gently vortexed to create a single-cell suspension. Overnight, the fixed cells were stored at −20 °C. The samples were then centrifuged, and the resulting cell pellet was resuspended in 500 μL of the staining solution made from 20% w/v RNase, 2% w/v PI, and roughly 0.1% v/v Triton X 100 solution in PBS. The dissolved samples were examined using flow cytometry in the BDAria™ III, BD Biosciences, after being incubated for 30 min at room temperature in the dark.

MCF-7 cells [2] = experiment: Annexin-V/FITC-PI apoptosis assay (flow cytometry); assay type: cell-based, human; settings: MCF-7, 48 h, at in vitro IC50
Procedure: Several studies have reported that anticancer drug molecules employ their cytotoxicity induced cell death via apoptotic pathways. […] These findings imply that the programmed cell death mechanism generated by the lead compound 2g causes considerable apoptosis in cancer cells.
In MCF-7 cells, an apoptosis assay was done using a TACs/Annexin V kit from Biolegend, USA. MCF-7 cells were seeded with a density of 5.0 × 10^4 cells per well in a flat-bottomed 12-well plate and allowed overnight for attachment. Following media aspiration, 48 hours of treatment with compound 2g and BG-45 at their in vitro IC50 values in MCF-7 cells were performed in triplicate. The cells were then trypsinized after being rinsed twice with ice-cold PBS. The trypsinized cells were then collected, centrifuged, and the obtained cell pellet was washed with ice-cold PBS before being resuspended in 100 μL of freshly prepared Annexin V reagent, which included 10 μL of 10× binding buffer, 1 μL of FITC, 10 μL of PI, and made up to 100 μL with double distilled water. Following a 30 minutes dark incubation period, these samples were diluted to 500 μL using 400 μL of 1× binding buffer. Following incubation, the samples were examined using flow cytometry (BDAria™ III, BD biosciences).

MCF-7 = experiment: MTT anti-proliferative assay on MCF-7; assay type: cell-based, human; settings: MTT, 48 hours treatment, mean ± SD (n = 2)
Procedure: as §1, §2, §3

HEK-293 = experiment: MTT cytotoxicity on normal HEK-293 cells; assay type: cell-based; settings: Homo sapiens, HEK293, normal cell line, 48 hours treatment, mean ± SD (n = 2)
From the text: We also investigated their in vitro cytotoxicity against a normal human embryonic kidney (HEK-293) cell line to determine their IC50.
as §2, §3

PC-3 = experiment: MTT anti-proliferative assay on PC-3; assay type: cell-based, human; settings: Homo sapiens, PC-3; MTT, 48 hours treatment, mean ± SD (n = 2)
Procedure: as §1, §2, §3

MCF-7 cells [3] = experiment: Intracellular ROS generation (DCFH-DA); assay type: cell-based, human; settings: MCF-7, 48 h, IC50 dose
From the text: This can result from the increased metabolic demands of rapidly dividing cancer cells and mitochondrial dysfunction. Elevated ROS levels can also damage DNA, contributing to genomic instability and the development of genetic mutations that drive cancer progression. Chemotherapy drugs, for example, can generate ROS as a byproduct of their mechanism of action, causing increase DNA damage and cell death in cancer cells. As a result, we investigated whether the compound 2g could cause ROS production within cancer cells.
The generation of reactive oxygen species in MCF-7 cells was investigated using the 2-7-dichlorodihydroflourescein diacetate (DCFH-DA) assay. The non-fluorescent DCFH-DA enters the cells, where cellular esterase cleaves off the acetyl groups to produce DCFH. ROS transform the molecule from DCFH to DCF, which produces green light. […] Following incubation, old medium was removed, and cells were treated with 10 μM DCFH-DA (S0033-Beyotime) in accordance with the recommended technique for 10 min at 37 °C in complete darkness. The intensity of fluorescence was then measured with a Laser Scanning Confocal Microscope (LSCM) DMI8 (Leica Microsystems, Germany) at 63× magnification at 485 nm and 535 nm for excitation and emission wavelengths. […] In the meantime, the increase in fluorescence intensity was determined in comparison to the control. Image J was used to calculate the relative fluorescence intensity (%). One-way ANOVA was used to determine significance, and the graph was created in GraphPad Prism™ version 8.0.1.

Row | SMILES | IC50 (4T1) | IC50 (MCF-7; Homo sapiens, MCF7, 48 h) | IC50 (MCF-7) | IC50 (PC-3) | melting point | cell population in G0/G1 phase (MCF-7 cells [1]) | cell population in G2/M phase (MCF-7 cells [1]) | cell population in S phase (MCF-7 cells [1]) | total apoptotic percentage (Q2 and Q4) (MCF-7 cells [2]) | IC50 (HEK-293) | Fluorescence intensity (DCFH-DA, ImageJ) (MCF-7 cells [3])
1 | Nc1ccccc1NC(=O)c1cnccn1 [BG-45, reference compound] | 59.14 ± 0.17 µM | 43.6 µM | 43.55 ± 0.18 µM | 28.67 ± 0.14 µM |  | 63.6% | 24.4% | 14.2% | 16.4 ± 1.1% | 144.56 ± 0.14 µM | 18.02
2 | FC(F)(F)c1c(-c2ccccc2)noc1-c1ccccc1 [Compound 2a] | 37.83 ± 0.2 µM | 11.3 µM | 11.3 ± 0.13 µM | 16.14 ± 0.15 µM | 60 to 65 °C |  |  |  |  | 114.9 ± 0.15 µM | 
3 | FC(F)(F)c1c(-c2cccs2)noc1-c1ccccc1 [Compound 2b] | 35.36 ± 0.19 µM | 9.76 µM | 9.76 ± 0.09 µM | 13.6 ± 0.17 µM | 65 to 69 °C |  |  |  |  | 103.3 ± 0.17 µM | 
4 | FC(F)(F)c1c(-c2cccc3ccccc23)noc1-c1cccs1 [Compound 2d] | 37.18 ± 0.22 µM | 10.6 ± 0.19 µM |  | 15.59 ± 0.14 µM |  |  |  |  |  | 111.8 ± 0.17 µM | 

Compounds with a lower IC50 (4T1), results first:

Row | IC50 (4T1) | IC50 (MCF-7; Homo sapiens, MCF7, 48 h) | IC50 (MCF-7) | IC50 (PC-3) | melting point | SMILES | cell population in G0/G1 phase (MCF-7 cells [1]) | cell population in G2/M phase (MCF-7 cells [1]) | cell population in S phase (MCF-7 cells [1]) | total apoptotic percentage (Q2 and Q4) (MCF-7 cells [2]) | IC50 (HEK-293) | Fluorescence intensity (DCFH-DA, ImageJ) (MCF-7 cells [3])
5 | 28.78 ± 0.19 µM | 8.19 ± 0.12 µM |  | 11.7 ± 0.16 µM |  | FC(F)(F)c1c(-c2ccccc2)noc1-c1cccs1 [Compound 2c] |  |  |  |  | 98.76 ± 0.24 µM | 
6 | 23.5 ± 0.21 µM | 5.48 µM | 5.48 ± 0.14 µM | 11.6 ± 0.14 µM | 66 to 70 °C | FC(F)(F)c1c(-c2cccs2)noc1-c1ccco1 [Compound 2e] |  |  |  |  | 94.55 ± 0.2 µM | 
